Reference: ChEMBL document CHEMBL1275453, “Resistance trends of the Bacteroides fragilis group over a 10-year period, 1997 to 2006, in Madrid, Spain” (2008)
In brackets after ≈: the same amount, converted by molar mass.

Tests used:
Type in all cases: functional
Bacteroides fragilis [1] = assay: Antibacterial activity against Bacteroides fragilis isolate by agar dilution method
Bacteroides stercoris [2] = assay: Antibacterial activity against Bacteroides stercoris assessed as percent resistant isolates by agar dilution method; conditions: pooled result: one value given for 4 cell lines, strains, targets or settings
Bacteroides ovatus [3] = assay: Antibacterial activity against Bacteroides ovatus assessed as percent resistant isolates by agar dilution method
[4] = system: Parabacteroides distasonis; assay: Antibacterial activity against Bacteroides distasonis assessed as percent resistant isolates by agar dilution method
Bacteroides caccae [5] = assay: Antibacterial activity against Bacteroides caccae assessed as percent resistant isolates by agar dilution method
Phocaeicola vulgatus [6] = assay: Antibacterial activity against Bacteroides vulgatus assessed as percent resistant isolates by agar dilution method
Bacteroides uniformis [7] = assay: Antibacterial activity against Bacteroides uniformis assessed as percent resistant isolates by agar dilution method
[8] = system: Bacteroides thetaiotaomicron; assay: Antibacterial activity against Bacteroides thetaiotaomicron assessed as percent resistant isolates by agar dilution method
Bacteroides fragilis [9] = assay: Antibacterial activity against Bacteroides fragilis assessed as percent resistant isolates by agar dilution method
Bacteroides stercoris [10] = assay: Antibacterial activity against Bacteroides stercoris isolate by agar dilution method
Parabacteroides merdae = assay: Antibacterial activity against Bacteroides merdae isolate by agar dilution method
Bacteroides eggerthii = assay: Antibacterial activity against Bacteroides eggerthii isolate by agar dilution method
Bacteroides sp. = assay: Antibacterial activity against Bacteroides spp. isolate by agar dilution method
Bacteroides ovatus [11] = assay: Antibacterial activity against Bacteroides ovatus isolate by agar dilution method
[12] = system: Parabacteroides distasonis; assay: Antibacterial activity against Bacteroides distasonis isolate by agar dilution method
Phocaeicola vulgatus [13] = assay: Antibacterial activity against Bacteroides vulgatus isolate by agar dilution method
Bacteroides caccae [14] = assay: Antibacterial activity against Bacteroides caccae isolate by agar dilution method
Bacteroides uniformis [15] = assay: Antibacterial activity against Bacteroides uniformis isolate by agar dilution method
[16] = system: Bacteroides thetaiotaomicron; assay: Antibacterial activity against Bacteroides thetaiotaomicron isolate by agar dilution method

Compound | MIC50 (Bacteroides fragilis [1]) [µg/mL] | MIC90 (Bacteroides fragilis [1]) [µg/mL] | Activity (Bacteroides stercoris [2]) [%] | Activity (Bacteroides ovatus [3]) [%] | Activity [4] [%] | Activity (Bacteroides caccae [5]) [%] | Activity (Phocaeicola vulgatus [6]) [%] | Activity (Bacteroides uniformis [7]) [%] | Activity [8] [%] | Activity (Bacteroides fragilis [9]) [%] | MIC50 (Bacteroides stercoris [10]) [µg/mL] | MIC90 (Bacteroides stercoris [10]) [µg/mL] | MIC50 (Parabacteroides merdae) [µg/mL] | MIC90 (Parabacteroides merdae) [µg/mL] | MIC50 (Bacteroides eggerthii) [µg/mL] | MIC90 (Bacteroides eggerthii) [µg/mL] | MIC50 (Bacteroides sp.) [µg/mL] | MIC90 (Bacteroides sp.) [µg/mL] | MIC50 (Bacteroides ovatus [11]) [µg/mL] | MIC90 (Bacteroides ovatus [11]) [µg/mL] | also measured
CO[C@@]1(NC(=O)Cc2cccs2)C(=O)N2C(C(=O)O)=C(COC(N)=O)CS[C@@H]21 [CEFOXITIN] | 8 (≈ 18.7 µM) | 32 (≈ 74.9 µM) | 23.9 | 12.2 | 25.6 | 8.9 | 17 | 9.4 | 23.6 | 6.4 | 16 (≈ 37.4 µM) | 64 (≈ 150 µM) | 16 (≈ 37.4 µM) | 64 (≈ 150 µM) | 16 (≈ 37.4 µM) | 64 (≈ 150 µM) | 16 (≈ 37.4 µM) | 64 (≈ 150 µM) | 16 (≈ 37.4 µM) | 64 (≈ 150 µM) | MIC50 [12]: 32 µg/mL (≈ 74.9 µM); MIC90 [12]: 64 µg/mL (≈ 150 µM); MIC50 (Phocaeicola vulgatus [13]): 16 µg/mL (≈ 37.4 µM); MIC90 (Phocaeicola vulgatus [13]): 64 µg/mL (≈ 150 µM); MIC50 (Bacteroides caccae [14]): 16 µg/mL (≈ 37.4 µM); MIC90 (Bacteroides caccae [14]): 32 µg/mL (≈ 74.9 µM); MIC50 (Bacteroides uniformis [15]): 16 µg/mL (≈ 37.4 µM); MIC90 (Bacteroides uniformis [15]): 32 µg/mL (≈ 74.9 µM); MIC50 [16]: 32 µg/mL (≈ 74.9 µM); MIC90 [16]: 64 µg/mL (≈ 150 µM)
O=C(N[C@H](CO)[C@H](O)c1ccc([N+](=O)[O-])cc1)C(Cl)Cl [CHLORAMPHENICOL] | 4 (≈ 12.4 µM) | 8 (≈ 24.8 µM) | 0 | 0 | 0 | 0 | 0 | 0 | 0 | 0 | 4 (≈ 12.4 µM) | 8 (≈ 24.8 µM) | 4 (≈ 12.4 µM) | 8 (≈ 24.8 µM) | 4 (≈ 12.4 µM) | 8 (≈ 24.8 µM) | 4 (≈ 12.4 µM) | 8 (≈ 24.8 µM) | 4 (≈ 12.4 µM) | 8 (≈ 24.8 µM) | MIC50 [12]: 8 µg/mL (≈ 24.8 µM); MIC90 [12]: 8 µg/mL (≈ 24.8 µM); MIC50 (Phocaeicola vulgatus [13]): 4 µg/mL (≈ 12.4 µM); MIC90 (Phocaeicola vulgatus [13]): 8 µg/mL (≈ 24.8 µM); MIC50 (Bacteroides caccae [14]): 4 µg/mL (≈ 12.4 µM); MIC90 (Bacteroides caccae [14]): 8 µg/mL (≈ 24.8 µM); MIC50 (Bacteroides uniformis [15]): 4 µg/mL (≈ 12.4 µM); MIC90 (Bacteroides uniformis [15]): 8 µg/mL (≈ 24.8 µM); MIC50 [16]: 4 µg/mL (≈ 12.4 µM); MIC90 [16]: 8 µg/mL (≈ 24.8 µM)
CCC[C@@H]1C[C@@H](C(=O)N[C@@H]([C@H]2O[C@H](SC)[C@H](O)[C@@H](O)[C@H]2O)[C@H](C)Cl)N(C)C1 [CLINDAMYCIN] | 2 (≈ 4.71 µM) | > 256 | 45.7 | 48.8 | 41.9 | 46.7 | 44.7 | 40.6 | 47.3 | 33.3 | 4 (≈ 9.41 µM) | > 256 | 4 (≈ 9.41 µM) | > 256 | 4 (≈ 9.41 µM) | > 256 | 4 (≈ 9.41 µM) | > 256 | 4 (≈ 9.41 µM) | > 256 | MIC50 [12]: 4 µg/mL (≈ 9.41 µM); MIC90 [12]: > 256 µg/mL; MIC50 (Phocaeicola vulgatus [13]): 4 µg/mL (≈ 9.41 µM); MIC90 (Phocaeicola vulgatus [13]): > 256 µg/mL; MIC50 (Bacteroides caccae [14]): 4 µg/mL (≈ 9.41 µM); MIC90 (Bacteroides caccae [14]): > 256 µg/mL; MIC50 (Bacteroides uniformis [15]): 2 µg/mL (≈ 4.71 µM); MIC90 (Bacteroides uniformis [15]): > 256 µg/mL; MIC50 [16]: 4 µg/mL (≈ 9.41 µM); MIC90 [16]: > 256 µg/mL
C[C@@H](O)[C@H]1C(=O)N2C(C(=O)O)=C(SCCNC=N)C[C@H]12 [IMIPENEM ANHYDROUS] | 0.25 (≈ 0.835 µM) | 1 (≈ 3.34 µM) | 0 | 0 | 0 | 0 | 0 | 0 | 0.5 | 0.6 | 0.25 (≈ 0.835 µM) | 2 (≈ 6.68 µM) | 0.25 (≈ 0.835 µM) | 2 (≈ 6.68 µM) | 0.25 (≈ 0.835 µM) | 2 (≈ 6.68 µM) | 0.25 (≈ 0.835 µM) | 2 (≈ 6.68 µM) | 0.25 (≈ 0.835 µM) | 2 (≈ 6.68 µM) | MIC50 [12]: 1 µg/mL (≈ 3.34 µM); MIC90 [12]: 1 µg/mL (≈ 3.34 µM); MIC50 (Phocaeicola vulgatus [13]): 0.5 µg/mL (≈ 1.67 µM); MIC90 (Phocaeicola vulgatus [13]): 2 µg/mL (≈ 6.68 µM); MIC50 (Bacteroides caccae [14]): 0.5 µg/mL (≈ 1.67 µM); MIC90 (Bacteroides caccae [14]): 2 µg/mL (≈ 6.68 µM); MIC50 (Bacteroides uniformis [15]): 0.25 µg/mL (≈ 0.835 µM); MIC90 (Bacteroides uniformis [15]): 2 µg/mL (≈ 6.68 µM); MIC50 [16]: 0.5 µg/mL (≈ 1.67 µM); MIC90 [16]: 2 µg/mL (≈ 6.68 µM)
